Measurements: patent publication US20200216493A1, “ANTIMICROBIAL PEPTIDES” (FERRING B.V., priority 2016, published 2020)
Converted amounts (≈) assume the structure as drawn. Read-outs that look alike come from different tables or passages of the source. Bridge positions count the residues as written; N and C are the ends. Square brackets hold non-standard residues; d marks the D form. Peptide text beside a SMILES is read from it. 1Nal = N[C@@H](Cc1cccc2ccccc12)C(=O)O; d(aIle) = CC[C@H](C)[C@@H](N)C(=O)O; dNMeF = CN[C@H](Cc1ccccc1)C(=O)O; hArg = N=C(N)NCCCC[C@H](N)C(=O)O

Legend:
S.aureus = assay type: cell-based, Staphylococcus aureus
Experimental: (§1) This assay was used to determine the minimum concentration of a test compound (i.e., an antimicrobial peptide described herein) able to inhibit the growth of a bacterial strain of interest. This is a standard method for measuring and comparing the potency of peptide-based antibacterial agents (Steinberg et al., Antimicrobial Agents and Chemotherapy 1997, 41 (8) 1738 - 1742 and Wiegand et al., Nature Protocols 2008, 3, 163-175).
(§2) The MIC is reported in units of μg/mL.
(§3) Bacterial cultures were grown by inoculating Mueller-Hinton Broth (MHB) with 3 or 4 representative colony (typical size, color, and shape) from a bacterial strain grown on a LB agar plate. Inoculated liquid cultures were grown at 37° C. with moderate shaking (200-250 rpm) until bacteria produced a visibly turbid suspension. Bacterial inoculum was approximated by measuring the optical density at 600 nm (0D600) of the bacterial culture against a sterile MHB blank. Typically, OD600=0.10 corresponds to ˜1×10^8 cfu/mL for S.aureus and OD600 =0.15 corresponds to ˜1×10^8 cfu/mL for E.coli.
(§4) Test compounds were prepared as stock solutions in vehicle at a concentration 10 times the highest concentration to be tested for antibacterial activity (usually 320 μg/mL stock solutions). 2x serial dilutions in vehicle (at 10× the final test concentrations) of the test compounds were prepared from the test compound stock solutions in a non-binding 96 well plate.
(§5) In a sterile clear flat bottom 96 well plate, 15 μL of each test compound dilution was added to 135 μL of ˜5×10^5 cfu/mL bacterial culture. Each concentration was tested in duplicate. Each experiment contained positive control wells for bacterial growth (i.e., no test compound added to bacteria) and sterility controls wells (i.e., sterile MHB and no test compounds added). 96 well plates containing bacterial cultures and test compounds were incubated at 37° C. for 16-20 hours with shaking at 200 rpm.
(§6) After incubation, the MIC of each test compound was determined by measuring the OD600 of each well using a plate reader. Wells with OD600 >0.08 were considered to have bacterial growth and wells with OD600<0.08 were considered to have no bacterial growth. The lowest concentration of test agent able to inhibit bacterial growth (0D600<0.08 after 16-20 hours) was defined as the MIC.

E.coli = assay type: cell-based, Escherichia coli; conditions: for MIC ratio Coli/Staph: ratio of E. coli MIC to S. aureus MIC
Experimental: as §1, §2, §3, §4, §5, §6

[1] = broth microdilution, Example 17a

Structure (SMILES)	MIC S. aureus (S.aureus) [µg/mL]	MIC E. coli (E.coli) [µg/mL]	MIC ratio Coli/Staph (E.coli)	MIC B. fragilis (B. fragilis) [µg/mL]	MIC C. difficile (C. difficile) [µg/mL]	MIC C. difficile (C. difficile; anaerobic broth microdilution, read after 44-48 hours, Example 17b) [µg/mL]	MIC S. aureus (S.aureus; [1]) [µg/mL]	MIC E. coli (E.coli; [1]) [µg/mL]
CC[C@H](C)[C@H](NC(=O)[C@@H](Cc1ccccc1)NC)C(=O)N[C@@H](CO)C(=O)N[C@H](CCC(N)=O)C(=O)N[C@@H](C(=O)N[C@H](C(=O)N[C@@H](CO)C(=O)N[C@H]1C(=O)N[C@@H](C)C(=O)N[C@@H](CCCCN)C(=O)N[C@@H]([C@@H](C)CC)C(=O)O[C@H]1C)[C@@H](C)CC)[C@@H](C)CC [Lys10-teixobactin]	0.25 (≈ 0.206 µM)	16 (≈ 13.2 µM)	64	>32	0.12 (≈ 0.0986 µM)			
CC[C@H](C)[C@H](NC(=O)[C@H](N)Cc1ccc(Cl)cc1)C(=O)N[C@@H](CO)C(=O)N[C@H](CCC(N)=O)C(=O)N[C@@H](C(=O)N[C@H](C(=O)N[C@@H](CO)C(=O)N[C@H]1C(=O)N[C@@H](C)C(=O)N[C@@H](CCCCN)C(=O)N[C@@H]([C@@H](C)CC)C(=O)O[C@H]1C)[C@@H](C)CC)[C@@H](C)CC [Compound 4, H-D-Phe(4-Cl)-Ile-Ser-D-Gln-D-aIle-Ile-Ser-c(D-Thr-Ala-Lys-Ile)]	0.13 (≈ 0.105 µM)	8 (≈ 6.47 µM)	62	>32	0.06 to 0.12			
CC[C@H](C)[C@H](NC(=O)[C@@H](Cc1ccccc1)NC)C(=O)N[C@@H](CO)C(=O)N[C@H](CCC(N)=O)C(=O)N[C@@H](C(=O)N[C@H](C(=O)N[C@@H](CO)C(=O)N[C@H]1C(=O)N[C@@H](C)C(=O)N[C@@H](CCCNC(=N)N)C(=O)N[C@@H]([C@@H](C)CC)C(=O)O[C@H]1C)[C@@H](C)CC)[C@@H](C)CC [Arg10-teixobactin]	0.25 to 0.5	>16	>64	>32	0.12 (≈ 0.0964 µM)			
CC[C@H](C)[C@H](NC(=O)[C@@H](Cc1ccccc1)NC)C(=O)N[C@@H](CCCCN)C(=O)N[C@H](CCC(N)=O)C(=O)N[C@@H](C(=O)N[C@H](C(=O)N[C@@H](CO)C(=O)N[C@H]1C(=O)N[C@@H](C)C(=O)N[C@@H](CCCCN)C(=O)N[C@@H]([C@@H](C)CC)C(=O)O[C@H]1C)[C@@H](C)CC)[C@@H](C)CC [Compound 8, H-D-MePhe-Ile-Lys-D-Gln-D-aIle-Ile-Ser-c(D-Thr-Ala-Lys-Ile)] (H-[dNMeF]IK[dQ][d(aIle)]IS[dT]AKI; ester 8-C)			31	>32	0.06 (≈ 0.0477 µM)		0.13 (≈ 0.103 µM)	4 (≈ 3.18 µM)
CC[C@H](C)[C@H](NC(=O)[C@@H](Cc1ccccc1)NC)C(=O)N[C@@H](CCCCN)C(=O)N[C@H](CCC(N)=O)C(=O)N[C@@H](C(=O)N[C@H](C(=O)N[C@@H](CO)C(=O)N[C@H]1C(=O)N[C@@H](C)C(=O)N[C@@H](CCCCNC(=N)N)C(=O)N[C@@H]([C@@H](C)CC)C(=O)O[C@H]1C)[C@@H](C)CC)[C@@H](C)CC [Compound 1, H-D-MePhe-Ile-Lys-D-Gln-D-aIle-Ile-Ser-c(D-Thr-Ala-Har-Ile)] (H-[dNMeF]IK[dQ][d(aIle)]IS[dT]A[hArg]I; ester 8-C)			67	>32	<0.03		0.06 (≈ 0.0462 µM)	4 (≈ 3.08 µM)

More lines, main results first:

MIC S. aureus (S.aureus) [µg/mL]	MIC E. coli (E.coli) [µg/mL]	MIC ratio Coli/Staph (E.coli)	MIC B. fragilis (B. fragilis) [µg/mL]	MIC C. difficile (C. difficile) [µg/mL]	MIC C. difficile (C. difficile; anaerobic broth microdilution, read after 44-48 hours, Example 17b) [µg/mL]	Structure (SMILES)	MIC S. aureus (S.aureus; [1]) [µg/mL]	MIC E. coli (E.coli; [1]) [µg/mL]
0.13 (≈ 0.0988 µM)	32 (≈ 24.3 µM)	246	>32		≤0.03 to 0.06	CC[C@H](C)[C@H](NC(=O)[C@@H](Cc1ccccc1)NC)C(=O)N[C@@H](Cc1c[nH]c2ccccc12)C(=O)N[C@H](CCC(N)=O)C(=O)N[C@@H](C(=O)N[C@H](C(=O)N[C@@H](CO)C(=O)N[C@H]1C(=O)N[C@@H](C)C(=O)N[C@@H](CCCCN)C(=O)N[C@@H]([C@@H](C)CC)C(=O)O[C@H]1C)[C@@H](C)CC)[C@@H](C)CC [Compound 7, H-D-MePhe-Ile-Trp-D-Gln-D-aIle-Ile-Ser-c(D-Thr-Ala-Lys-Ile)] (H-[dNMeF]IW[dQ][d(aIle)]IS[dT]AKI; ester 8-C)		
0.19 (≈ 0.156 µM)	16 (≈ 13.2 µM)	84				CC[C@H](C)[C@H](NC(=O)[C@H](NC(=O)[C@@H](CCC(N)=O)NC(=O)[C@H](CO)NC(=O)[C@H](CC(C)C)NC(=O)[C@@H](Cc1ccccc1)NC)[C@@H](C)CC)C(=O)N[C@@H](CO)C(=O)N[C@H]1C(=O)N[C@@H](C)C(=O)N[C@@H](CCCCN)C(=O)N[C@@H]([C@@H](C)CC)C(=O)O[C@H]1C [Compound 10, H-D-MePhe-Leu-Ser-D-Gln-D-aIle-Ile-Ser-c(D-Thr-Ala-Lys-Ile)] (H-[dNMeF]LS[dQ][d(aIle)]IS[dT]AKI; ester 8-C)		
0.25 (≈ 0.196 µM)	16 (≈ 12.6 µM)	64				CC[C@H](C)[C@H](NC(=O)[C@@H](Cc1ccccc1)NC)C(=O)N[C@@H](CO)C(=O)N[C@H](Cc1c[nH]c2ccccc12)C(=O)N[C@@H](C(=O)N[C@H](C(=O)N[C@@H](CO)C(=O)N[C@H]1C(=O)N[C@@H](C)C(=O)N[C@@H](CCCCN)C(=O)N[C@@H]([C@@H](C)CC)C(=O)O[C@H]1C)[C@@H](C)CC)[C@@H](C)CC [Compound 13, H-D-MePhe-Ile-Ser-D-Trp-D-aIle-Ile-Ser-c(D-Thr-Ala-Lys-Ile)] (H-[dNMeF]IS[dW][d(aIle)]IS[dT]AKI; ester 8-C)		
0.25 (≈ 0.199 µM)	16 (≈ 12.7 µM)	64	>32	0.12 (≈ 0.0953 µM)		CC[C@H](C)[C@H](NC(=O)[C@@H](Cc1ccccc1)NC)C(=O)N[C@@H](CO)C(=O)N[C@H](CCC(N)=O)C(=O)N[C@@H](C(=O)N[C@H](C(=O)N[C@@H](CO)C(=O)N[C@H]1C(=O)N[C@@H](C)C(=O)N[C@@H](CCCNC(=N)NC)C(=O)N[C@@H]([C@@H](C)CC)C(=O)O[C@H]1C)[C@@H](C)CC)[C@@H](C)CC [Compound 11, H-D-MePhe-Ile-Ser-D-Gln-D-aIle-Ile-Ser-c(D-Thr-Ala-Arg(Me)-Ile)]		
0.25 (≈ 0.206 µM)	4 (≈ 3.29 µM)	16	>32	0.06 to 0.12		CC[C@H](C)[C@H](NC(=O)[C@@H](Cc1ccccc1)NC)C(=O)N[C@@H](CO)C(=O)N[C@H](CCCCN)C(=O)N[C@@H](C(=O)N[C@H](C(=O)N[C@@H](CO)C(=O)N[C@H]1C(=O)N[C@@H](C)C(=O)N[C@@H](CCCCN)C(=O)N[C@@H]([C@@H](C)CC)C(=O)O[C@H]1C)[C@@H](C)CC)[C@@H](C)CC [Compound 14, H-D-MePhe-Ile-Ser-D-Lys-D-aIle-Ile-Ser-c(D-Thr-Ala-Lys-Ile)] (H-[dNMeF]IS[dK][d(aIle)]IS[dT]AKI; ester 8-C)		
0.25 (≈ 0.206 µM)	32 (≈ 26.3 µM)	128	>32	0.25 (≈ 0.206 µM)		CC[C@@H](C)[C@@H](NC(=O)[C@@H](CCC(N)=O)NC(=O)[C@H](CO)NC(=O)[C@@H](NC(=O)[C@@H](Cc1ccccc1)NC)[C@@H](C)CC)C(=O)N[C@H](C(=O)N[C@@H](CO)C(=O)N[C@H]1C(=O)N[C@@H](C)C(=O)N[C@@H](CCCCN)C(=O)N[C@@H]([C@@H](C)CC)C(=O)O[C@H]1C)[C@@H](C)CC [Compound 12, H-D-MePhe-Ile-Ser-D-Gln-D-Ile-Ile-Ser-c(D-Thr-Ala-Lys-Ile)]		
0.09 (≈ 0.0678 µM)	>32	>356				CC[C@H](C)[C@H](NC(=O)[C@@H](Cc1ccccc1)NC)C(=O)N[C@@H](Cc1cccc2ccccc12)C(=O)N[C@H](CCC(N)=O)C(=O)N[C@@H](C(=O)N[C@H](C(=O)N[C@@H](CO)C(=O)N[C@H]1C(=O)N[C@@H](C)C(=O)N[C@@H](CCCCN)C(=O)N[C@@H]([C@@H](C)CC)C(=O)O[C@H]1C)[C@@H](C)CC)[C@@H](C)CC [Compound 3, H-D-MePhe-Ile-1Nal-D-Gln-D-aIle-Ile-Ser-c(D-Thr-Ala-Lys-Ile)] (H-[dNMeF]I[1Nal][dQ][d(aIle)]IS[dT]AKI; ester 8-C)		
